Measurements published in US20240325521A1, “IONIZABLE LIPID COMPOUND FOR NUCLEIC ACID DELIVERY AND LNP COMPOSITION THEREOF” (priority 2021, published 2024).

What was measured:
[1] = 25° C., up to 4 weeks; compared with cationic lipids III and IV
[2] = Detection of novel coronavirus LNP-mRNA vaccine after encapsulation with different cationic lipids (encapsulation efficiency, particle size, PDI, Zeta potential); assay type: physicochemical; conditions: compared with control cationic lipids III and IV
[3] = tested on: Hep3B cells; assay type: cell-based; conditions: compared with cationic lipids III and IV

| SMILES | stability of LNP-mRNAs prepared by the cationic lipid [1] | encapsulation effect on mRNA antigen [2] | in-vitro transfection efficiency [3] |
| --- | --- | --- | --- |
| CCCCCCCCC(CCCCCC)COC(=O)OCCCCCCN(CCCCO)CCCCCCOC(=O)OCC(CCCCCC)CCCCCCCC (stereo not drawn) [Compound 1] | better | better encapsulation effect | better |
| CCCCCCCCCCCOC(=O)OCCCCCN(CCO)CCCCCCCOC(=O)OC(CCCCCCCC)CCCCCCCC [Compound 2] | better | better encapsulation effect | better |
